Experimental data reported in ChEMBL document CHEMBL1144678, “Thiahomoisocitrate: a highly potent inhibitor of homoisocitrate dehydrogenase involved in the alpha-aminoadipate pathway” (Bioorg Med Chem, 2008).

Legend:
Saccharomyces cerevisiae = assay: Activity of Saccharomyces cerevisiae homoisocitrate dehydrogenase
[1] = Inhibition of Saccharomyces cerevisiae homoisocitrate dehydrogenase

`O=C(O)CO[C@H](C(=O)O)[C@@H](O)C(=O)O` gave a Km (Saccharomyces cerevisiae) of 20 µM, a kcat (Saccharomyces cerevisiae) of 0.59 s⁻¹ and a Ki [1] of 10 µM.

`O=C(O)CSCC(=O)C(=O)O` showed a Ki [1] of 12 µM.

`O=C(O)CN[C@H](C(=O)O)[C@@H](O)C(=O)O` showed a Km (Saccharomyces cerevisiae) of 150 µM and a kcat (Saccharomyces cerevisiae) of 2 s⁻¹.

For `O=C(O)CS[C@H](C(=O)O)[C@@H](O)C(=O)O`, the Ki [1] was 0.097 µM.
